Results: patent publication US12077503B2, “Substituted cyclic amides and their use as herbicides” (FMC CORPORATION, priority 2015, dated 2024)

What was measured:
Format in all cases: in vivo
[1] = tested on: barnyardgrass (Echinochloa crus-galli); test: Test C flooded paddy test; settings: Flood; for Plant response rating (scale of 0 to 100), Barnyardgrass: 0 is no effect, 100 is complete control
Description: (§1) Plant species in the flooded paddy test consisted of rice (Oryza sativa), sedge, umbrella (small-flower umbrella sedge, Cyperus difformis), ducksalad (Heteranthera limosa), and barnyardgrass (Echinochloa crus-galli) grown to the 2-leaf stage for testing. At time of treatment, test pots were flooded to 3 cm above the soil surface, treated by application of test compounds directly to the paddy water, and then maintained at that water depth for the duration of the test. Treated plants and controls were maintained in a greenhouse for 13 to 15 d, after which time all species were compared to controls and visually evaluated. Plant response ratings, summarized in Table C, are based on a scale of 0 to 100 where 0 is no effect and 100 is complete control. A dash (-) response means no test result.

rice (Oryza sativa) = test: Test C flooded paddy test; settings: Flood; for Plant response rating (scale of 0 to 100), Rice: 0 is no effect, 100 is complete control
Description: as §1

[2] = tested on: sedge, umbrella (small-flower umbrella sedge, Cyperus difformis); test: Test C flooded paddy test; settings: Flood; for Plant response rating (scale of 0 to 100), Sedge, Umbrella: 0 is no effect, 100 is complete control
Description: as §1

[3] = tested on: ducksalad (Heteranthera limosa); test: Test C flooded paddy test; settings: Flood; for Plant response rating (scale of 0 to 100), Ducksalad: 0 is no effect, 100 is complete control
Description: as §1

[4] = tested on: blackgrass (Alopecurus myosuroides); test: Test A postemergence; settings: postemergence; for Plant response rating, Blackgrass: 0 to 100 scale (0 no effect, 100 complete control)
In short: (§2)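 Seeds sprayed preemergence with a directed soil spray, or plants at 2 to 10 cm height and one- to two-leaf stage sprayed postemergence, with test chemicals in a non-phytotoxic solvent mixture containing surfactant, in loam soil–sand blend. Injury rated visually against untreated controls after about 10 d in greenhouse, 0 (no effect) to 100 (complete control).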

[5] = tested on: barnyardgrass (Echinochloa crus-galli); test: Test A postemergence; settings: postemergence; for Plant response rating, Barnyardgrass: 0 to 100 scale (0 no effect, 100 complete control)
In short: as §2

[6] = tested on: giant foxtail (Setaria faberii); test: Test A postemergence; settings: postemergence; for Plant response rating, Foxtail, Giant: 0 to 100 scale (0 no effect, 100 complete control)
In short: as §2

[7] = tested on: ragweed (common ragweed, Ambrosia elatior); test: Test A postemergence; settings: postemergence; for Plant response rating, Ragweed: 0 to 100 scale (0 no effect, 100 complete control)
In short: as §2

Kochia (Kochia scoparia) [8] = test: Test A postemergence; settings: postemergence; for Plant response rating, Kochia: 0 to 100 scale (0 no effect, 100 complete control)
In short: as §2

[9] = tested on: pigweed (Amaranthus retroflexus); test: Test A postemergence; settings: postemergence; for Plant response rating, Pigweed: 0 to 100 scale (0 no effect, 100 complete control)
In short: as §2

corn (Zea mays) = test: Test A postemergence; settings: postemergence; for Plant response rating, Corn: 0 to 100 scale (0 no effect, 100 complete control)
In short: as §2

[10] = tested on: wheat (Triticum aestivum); test: Test A postemergence; settings: postemergence; for Plant response rating, Wheat: 0 to 100 scale (0 no effect, 100 complete control)
In short: as §2

[11] = tested on: Galium (catchweed bedstraw, Galium aparine); test: Test A postemergence; settings: postemergence; for Plant response rating, Galium: 0 to 100 scale (0 no effect, 100 complete control)
In short: as §2

[12] = tested on: ryegrass, Italian (Italian ryegrass, Lolium multiflorum); test: Test A postemergence; settings: postemergence; for Plant response rating, Ryegrass, Italian: 0 to 100 scale (0 no effect, 100 complete control)
In short: as §2

[13] = tested on: barnyardgrass (Echinochloa crus-galli); test: Test A preemergence
In short: as §2

[14] = tested on: giant foxtail (Setaria faberii); test: Test A preemergence
In short: as §2

[15] = tested on: ragweed (common ragweed, Ambrosia elatior); test: Test A preemergence
In short: as §2

Kochia (Kochia scoparia) [16] = test: Test A preemergence
In short: as §2

[17] = tested on: pigweed (Amaranthus retroflexus); test: Test A preemergence
[18] = tested on: ryegrass, Italian (Italian ryegrass, Lolium multiflorum); test: Test A preemergence
In short: as §2

rice (Oryra sativa) = test: Test B flooded paddy test; settings: Flood, 250 g ai/ha, 0 to 100 scale where 0 is no effect and 100 is complete control
In short: (§3)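 2-leaf plants; pots flooded 3 cm over soil; cpd added to paddy water; depth held; greenhouse 13–15 d; visual rating vs controls, 0 = no effect, 100 = complete control.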

[19] = tested on: barnyardgrass (Echinochloa crus-galli); test: Test B flooded paddy test; settings: Flood, 250 g ai/ha, 0 to 100 scale where 0 is no effect and 100 is complete control
In short: as §3

[20] = tested on: sedge, umbrella (small-flower umbrella sedge, Cyperus difformis); test: Test B flooded paddy test; settings: Flood, 250 g ai/ha, 0 to 100 scale where 0 is no effect and 100 is complete control
In short: as §3

[21] = tested on: ducksalad (Heteranthera limosa); test: Test B flooded paddy test; settings: Flood, 250 g ai/ha, 0 to 100 scale where 0 is no effect and 100 is complete control
In short: as §3

[22] = 31 g ai/ha, scale 0 to 100 (0 no effect, 100 complete control), 13 to 15 d
[23] = 125 g ai/ha, visual rating after approx. 10 d
[24] = 500 g ai/ha, visual injury, approx. 10 d
[25] = 125 g ai/ha, Preemergence, visual injury after approximately 10 d, 0 to 100 scale where 0 is no effect and 100 is complete control
[26] = 500 g ai/ha, preemergence, 0 to 100 scale, 0 = no effect, 100 = complete control
[27] = 125 g ai/ha, visual injury vs untreated controls after approx. 10 d, 0 = no effect, 100 = complete control
[28] = 500 g ai/ha, 0 to 100 scale, 0 is no effect, 100 is complete control
[29] = 125 g ai/ha, preemergence, visual injury rating, 0 to 100 scale where 0 is no effect and 100 is complete control, approximately 10 d
[30] = 500 g ai/ha, preemergence, 0 to 100 scale where 0 is no effect and 100 is complete control

## CN1CC(c2cc(F)cc(F)c2)C(C(=O)Nc2ccc(F)cc2F)C1=O (stereo not drawn) [Compound 645]
[1]; [22]
  Plant response rating, Barnyardgrass: 30
[1]; 62 g ai/ha
  Plant response rating (scale of 0 to 100), Barnyardgrass: 40
[1]; 125 g ai/ha
  Plant response rating (scale of 0 to 100), Barnyardgrass: 65
[1]; 250 g ai/ha
  Plant response rating (scale of 0 to 100), Barnyardgrass: 75
Rice (Oryza sativa); [22]
  Plant response rating, Rice: 0
Rice (Oryza sativa); 62 g ai/ha
  Plant response rating (scale of 0 to 100), Rice: 0
Rice (Oryza sativa); 125 g ai/ha
  Plant response rating (scale of 0 to 100), Rice: 0
Rice (Oryza sativa); 250 g ai/ha
  Plant response rating (scale of 0 to 100), Rice: 0
[2]; [22]
  Plant response rating, Sedge, Umbrella: 0
[2]; 62 g ai/ha
  Plant response rating (scale of 0 to 100), Sedge, Umbrella: 0
[2]; 125 g ai/ha
  Plant response rating (scale of 0 to 100), Sedge, Umbrella: 0
[2]; 250 g ai/ha
  Plant response rating (scale of 0 to 100), Sedge, Umbrella: 0
[3]; [22]
  Plant response rating, Ducksalad: 30
[3]; 62 g ai/ha
  Plant response rating (scale of 0 to 100), Ducksalad: 60
[3]; 125 g ai/ha
  Plant response rating (scale of 0 to 100), Ducksalad: 80
[3]; 250 g ai/ha
  Plant response rating (scale of 0 to 100), Ducksalad: 95
[4]; [23]
  Plant response rating, Blackgrass: 60
[4]; [24]
  Plant response rating, Blackgrass: 70
[5]; [23]
  Plant response rating, Barnyardgrass: 90
[5]; [24]
  Plant response rating, Barnyardgrass: 90
[6]; [23]
  Plant response rating, Foxtail, Giant: 90
[6]; [24]
  Plant response rating, Foxtail, Giant: 90
[7]; [23]
  Plant response rating, Ragweed: 10
[7]; [24]
  Plant response rating, Ragweed: 20
Kochia (Kochia scoparia) [8]; [23]
  Plant response rating, Kochia: 0
Kochia (Kochia scoparia) [8]; [24]
  Plant response rating, Kochia: 50
[9]; [23]
  Plant response rating, Pigweed: 0
[9]; [24]
  Plant response rating, Pigweed: 0
Corn (Zea mays); [23]
  Plant response rating, Corn: 20
Corn (Zea mays); [24]
  Plant response rating, Corn: 60
[10]; [23]
  Plant response rating, Wheat: 30
[10]; [24]
  Plant response rating, Wheat: 50
[11]; [23]
  Plant response rating, Galium: 50
[11]; [24]
  Plant response rating, Galium: 50
[12]; [23]
  Plant response rating, Ryegrass, Italian: 20
[12]; [24]
  Plant response rating, Ryegrass, Italian: 50
[13]; [25]
  Plant response rating, Barnyardgrass: 90
[13]; [26]
  Plant response rating, Barnyardgrass: 90
[14]; [25]
  Plant response rating, Foxtail, Giant: 90
[14]; [26]
  Plant response rating, Foxtail, Giant: 90
[15]; [25]
  Plant response rating, Ragweed: 0
[15]; [26]
  Plant response rating, Ragweed: 20
Kochia (Kochia scoparia) [16]; [25]
  Plant response rating, Kochia: 0
Kochia (Kochia scoparia) [16]; [26]
  Plant response rating, Kochia: 60
[17]; [25]
  Plant response rating, Pigweed: 0
[17]; [26]
  Plant response rating, Pigweed: 50
[18]; [25]
  Plant response rating, Ryegrass, Italian: 20
[18]; [26]
  Plant response rating, Ryegrass, Italian: 60
Rice (Oryra sativa); 13 to 15 d
  Plant response rating, Rice: 0
[19]; 13 to 15 d
  Plant response rating, Barnyardgrass: 80
[20]; 13 to 15 d
  Plant response rating, Sedge, Umbrella: 0
[21]; 13 to 15 d
  Plant response rating, Ducksalad: 100

## O=C1NCC(c2cccc(C(F)(F)F)c2)C1C(=O)Nc1ccccc1O (stereo not drawn) [Compound 1241]
[4]; [27]
  Blackgrass plant response rating (0 to 100 scale): 0
[4]; [28]
  Blackgrass plant response rating: 0
[5]; [27]
  Barnyardgrass plant response rating (0 to 100 scale): 0
[5]; [28]
  Barnyardgrass plant response rating: 30
[6]; [27]
  Foxtail, Giant plant response rating (0 to 100 scale): 0
[6]; [28]
  Foxtail, Giant plant response rating: 20
[7]; [27]
  Ragweed plant response rating (0 to 100 scale): 0
[7]; [28]
  Ragweed plant response rating: 0
Kochia (Kochia scoparia) [8]; [27]
  Kochia plant response rating (0 to 100 scale): 0
Kochia (Kochia scoparia) [8]; [28]
  Kochia plant response rating: 0
[9]; [27]
  Pigweed plant response rating (0 to 100 scale): 0
[9]; [28]
  Pigweed plant response rating: 0
Corn (Zea mays); [27]
  Corn plant response rating (0 to 100 scale): 0
Corn (Zea mays); [28]
  Corn plant response rating: 20
[10]; [27]
  Wheat plant response rating (0 to 100 scale): 0
[11]; [27]
  Galium plant response rating (0 to 100 scale): 0
[11]; [28]
  Galium plant response rating: 0
[12]; [27]
  Ryegrass, Italian plant response rating (0 to 100 scale): 0
[12]; [28]
  Ryegrass, Italian plant response rating: 0
[13]; [29]
  Barnyardgrass plant response rating: 0
[13]; [30]
  Barnyardgrass plant response rating: 0
[14]; [29]
  Foxtail, Giant plant response rating: 0
[14]; [30]
  Foxtail, Giant plant response rating: 0
[15]; [29]
  Ragweed plant response rating: 0
[15]; [30]
  Ragweed plant response rating: 0
Kochia (Kochia scoparia) [16]; [29]
  Kochia plant response rating: 0
Kochia (Kochia scoparia) [16]; [30]
  Kochia plant response rating: 0
[17]; [29]
  Pigweed plant response rating: 0
[17]; [30]
  Pigweed plant response rating: 0
[18]; [29]
  Ryegrass, Italian plant response rating: 0
[18]; [30]
  Ryegrass, Italian plant response rating: 0
Rice (Oryra sativa)
  Rice plant response rating: 0
[19]
  Barnyardgrass plant response rating: 0
[20]
  Sedge, Umbrella plant response rating: 0
[21]
  Ducksalad plant response rating: 0
